What was measured:
HepG2 cells = assay: Cell viability (WST-1 assay), HepG2 cells; format: cell-based; details: Homo sapiens
Experimental: (§1) Human liver cancer cells of Hep3B, Huh7, HepG2 and PLC/PRF5 were cultured in DMEM supplemented with 10% FBS, 100 U/ml penicillin and 100 μg/ml streptomycin.
(§2) A lentiviral construct expressing STAT1 shRNA, p65 shRNA and LCN2 shRNA was purchased from Sigma-Aldrich. Wild-type SULF2, SULF2-N491K, wild-type ERC1, ERC1-H721Q, wild-type NTRK3, NTRK3-N522K, wild-type SHC1 and SHC1-SHC1-P55 cDNA constructs were cloned into MCS-EF1-Puro (System Biosciences, Mountain), the lentiviral vectors for cDNA expression. All lentiviral vectors were transfected into 293 TN cells (System Biosciences) using the Lipofectamine 3000 transfection reagent (Invitrogen, Waltham, Mass., USA). Two days after lentiviral plasmid transfection, particles were collected and used to infect HCC cells. The HDD cells infected with lentivirus were selected using puromycin for 1 week.
(§3) For cell proliferation analysis, 5×10^3 cells were divided into 96-well plates and cultured in DMEM containing various concentrations of anti-cancer drugs and 5% FBS for 48 hours. Cell viability was measured through WST-1 assay (Roche, Gangnam-gu, Seoul, Korea) and four repetitions of each experiment were performed at least 3 times. Cell migration analysis was performed in a 24-well Boyden chamber (8 μm pore size; Coastal; Corning Life Sciences, Lowell, Mass.), 1×10^5 cells were suspended in serum-free 0.2 ml DMEM and added to the upper chamber inlet, and the lower chamber was filled with 0.6 ml DMEM/10% fetal bovine serum. After 6 hours, the cells on the bottom of the membrane were fixed, stained and counted at ×200 magnification with four microscopes.

Huh7 cells = assay: Cell viability (WST-1 assay), Huh7 cells; format: cell-based, Human
Experimental: as §1, §2, §3

LCN2 mRNA = LCN2 mRNA expression by qRT-PCR in Hep3B vector, SULF2-WT and SULF2-N491K cells; format: cell-based, Human
Experimental: (§4) Each cell was collected using an RNeasy kit (Qiagen, Venlo, Netherlands) and total RNA was isolated. The mRNA was reverse-transcribed into cDNA using a PrimeScript RT kit (Takara, Shiga, Japan), and then PCR was conducted using the CFX96 Real-Time PCR Detection System (Bio-Rad Laboratories, Hercules, Calif., USA) equipped with SsoAdvanced Universal Supermixes (Bio-Rad). The analysis of each sample was run at least three times for each experiment, and the data for the number was reported in a relative quantity: Mean value (standard deviation) of 2^−ΔΔCT±S.D.

Hep3B cells [1] = assay: Cell viability / proliferation (WST-1 assay), Hep3B cells expressing vector, SULF2-WT or SULF2-N491K; format: cell-based, Human; details: for cell proliferation: 0.01-10 μM
Experimental: as §1, §2
Then, in order to identify whether or not the SULF2 mutation changed drug susceptibility, an overexpression system for wild-type SULF2 and SULF2-N491K mutants in Hep3B cells that rarely expressed endogenous SULF2 was established (Lai J P et al., Hepatology 47: 1211-22, 2008).
as §3

Hep3B cells [2] = assay: Transwell (Boyden chamber) cell migration assay, Hep3B cells; format: cell-based, Human
Experimental: as §3

[3] = test system: Hep3B-SR, SULF2-WT-SR, HepG2-SR and Huh7-SR cells; assay: Cell viability of sorafenib-resistant (SR) liver cancer cells; format: cell-based, Human; details: LCN2 siRNA 24 hours, then 5 μM sorafenib 48 hours
Experimental: as §3
After culture for several months, the sorafenib-resistant (SR) cell lines, Vector-SR, SULF2-WT-SR and SULF2-N491K-SR were obtained.
Thus, control siRNA and siRNA for human LCN2 were purchased from Santa Cruz Biotechnology, and each cell was transfected with siRNA using a transfection reagent (Santa Cruz) according to the manufacturer's instructions.

SULF2 mRNA = SULF2 mRNA expression by qRT-PCR in HepG2 and Huh7 cells; format: cell-based, Human; details: sorafenib up to 10 μM for 1, 2, 4 and 12 weeks
Experimental: as §4

amphiregulin mRNA = assay: Amphiregulin mRNA level by qRT-PCR in Hep3B vector, SULF2-WT and SULF2-N491K cells; format: cell-based, Human; details: 2 μM sorafenib, 72 hours
Experimental: as §4

EGFR = assay: Western blotting of EGFR downstream signaling after amphiregulin treatment; format: cell-based, Human; details: SULF2-WT cells, amphiregulin 50 ng/ml
Experimental: In order to prepare total cell lysate, cells were lysed in a high-salt-content lysis buffer (20 mM Tris-HCl [pH 8.0], 1% Triton X-100, 2 mM EDTA and 1 mM phenylmethylsulfonyl fluoride), incubated on ice for 20 minutes, and centrifuged for 20 minutes to remove cell debris. A total of 20 μg of total cell lysate was used for SDS-polyacrylamide gel electrophoresis, and proteins were transferred to a nitrocellulose membrane and incubated overnight with each antibody at 4° C. The membrane was then incubated at room temperature for 1 hour with a peroxidase-conjugated secondary antibody (PIERCE, Rockford, Ill., USA), and signals were detected using a chemiluminescence detection kit (PIERCE).
Thus, in order to elucidate the mechanism by which sorafenib-mediated EGFR activation is differentially regulated between SULF2-WT and SULF2-N491K, the effect of exogenous stimulation of EGFR by treatment with recombinant human amphiregulin (rhAR) on three types of cells was compared.

Nc1ncnc2c1c(-c1cccc(OCc3ccccc3)c1)cn2[C@H]1C[C@@H](CN2CCC2)C1 [AEW541]
IC50 (HepG2 cells; HepG2, HepG2 cells expressing ERC1-H721Q): 2.63 µM
IC50 (HepG2 cells; HepG2, HepG2 cells expressing ERC1-WT): 4.25 µM

CN[C@@H](C)C(=O)N[C@H](C(=O)N1CC[C@H]2CCN(CCc3ccccc3)C[C@H]21)C1CCCCC1 [LBW242]
IC50 (Huh7 cells; Huh7 cells expressing SHC1-P5S): 2.26 µM
IC50 (Huh7 cells; Huh7 cells expressing SHC1-WT): 4.26 µM

N#CC(=C(/N)Sc1ccccc1N)/C(C#N)=C(/N)Sc1ccccc1N [MEK inhibitor]
LCN2 expression (LCN2 mRNA; vector or SULF2-N491K cells, U0126 10 μM, 48 hours): did not inhibit

CCN(CC)CCCCNc1ncc2cc(-c3cc(OC)cc(OC)c3)c(NC(=O)NC(C)(C)C)nc2n1 [PD173074]
cell proliferation (Hep3B cells [1]; SULF2-WT cells, 48 hours): did not inhibit
cell proliferation (Hep3B cells [1]; vector and SULF2-N491K cells, 48 hours): inhibited cell proliferation
cell migration (Hep3B cells [2]; vector, SULF2-WT or SULF2-N491K cells treated with PD173074): inhibition of great migration was not found

CNC(=O)c1cc(Oc2ccc(NC(=O)Nc3ccc(Cl)c(C(F)(F)F)c3)cc2)ccn1 [Sorafenib]
sorafenib susceptibility after LCN2 knockdown [3]: restoration of sorafenib susceptibility
susceptibility to sorafenib with OKN-007 treatment (Hep3B cells [1]; Hep3B vector and SULF2-N491K cells, 48 hours): did not change
IC50 (Hep3B cells [1]; Hep3B-SULF2-WT cells): 7.51 µM
IC50 (Hep3B cells [1]; Homo sapiens, Hep3B, 48 h, Hep3B cells expressing wild-type SULF2, sorafenib in combination with OKN-007, 48 hours): 3.17 µM
IC50 (Hep3B cells [1]; Homo sapiens, Hep3B, 48 h, SULF2-WT cells with knockdown of LCN2 by shRNA): 3.95 µM
IC50 (Hep3B cells [1]; Homo sapiens, Hep3B, Hep3B cells expressing SULF2-N491K): 3.54 µM
IC50 (Hep3B cells [1]; Homo sapiens, Hep3B, Hep3B-SULF2-WT cells): 7.51 µM
IC50 (Hep3B cells [1]; Homo sapiens, Hep3B, Hep3B-vector cells): 3.37 µM
SULF2 mRNA expression (SULF2 mRNA): significantly increased in a time-dependent manner
IC50 (Huh7 cells; Homo sapiens, Huh-7, 48 h, Huh7 cells, NT shRNA, 48 hours): 10.2 µM
IC50 (Huh7 cells; Homo sapiens, Huh-7, 48 h, Huh7 cells, SULF2 knockdown (SULF2 shRNA), 48 hours): 6.17 µM
IC50 (Huh7 cells; Homo sapiens, Huh-7, Huh7 cells expressing NTRK3-N522K): 5.8 µM
IC50 (Huh7 cells; Homo sapiens, Huh-7, Huh7 cells expressing NTRK3-WT): 7.64 µM
IC50 (Huh7 cells; Homo sapiens, Huh-7, Huh7 cells, sorafenib in combination with 200 μM OKN-007): 5.06 µM
LCN2 mRNA expression (LCN2 mRNA; SULF2-WT cells, 2 μM sorafenib, 72 hours): significantly induced
LCN2 mRNA expression (LCN2 mRNA; vector and SULF2-N491K cells, 2 μM sorafenib, 72 hours): induced only a small amount
IC50 (HepG2 cells; HepG2, HepG2 cells, NT shRNA): 4.97 µM
IC50 (HepG2 cells; HepG2, HepG2 cells, SULF2 knockdown (SULF2 shRNA)): 2.38 µM
IC50 (HepG2 cells; HepG2, HepG2 cells, sorafenib in combination with OKN-007): 1.76 µM
amphiregulin expression (amphiregulin mRNA): significantly increased

COc1cc2ncnc(Nc3ccc(F)c(Cl)c3)c2cc1OCCCN1CCOCC1 [gefitinib]
cell growth (Hep3B cells [1]; SULF2-WT cells compared with vector and SULF2-N491K cells, 48 hours): significantly inhibited
LCN2 mRNA expression (LCN2 mRNA; SULF2-WT cells, 48 hours, OKN-007 200 μM, gefitinib 5 μM): significantly inhibited
cell migration (Hep3B cells [2]; SULF2-WT cells compared with vector and SULF2-N491K cells): significantly inhibited

B1: amphiregulin: recombinant human amphiregulin, the EGFR ligand, from R & D systems (protein, UniProt P15514 101-187, looked up)
Amphiregulin: SVRVEQVVKPPQNKTESENTSDKPKRKKKGGKNGKNRRNRKKKNPCNAEFQNFCIHGECKYIEHLEAVTCKCQQEYFGERCGEKSMK
activation of EGFR and downstream signaling pathways including STAT1 and ERK (EGFR): elevated activation
p65 and LCN2 protein levels (EGFR): significantly increased

Source: US11510911B2 (AJOU UNIVERSITY INDUSTRY—ACADEMIC COOPERATION FOUNDATION, priority 2017, dated 2022)
